The subject of one experiment is HSF1-stress pathway. In words: ArrayScan HSP72 protein assay (HSF1-stress pathway inhibition, 17-AAG induced).
For a further experiment, the target named is T1, CDK9/cyclin T1 (Homo sapiens, UniProt P50750).
T1 construct: purchased EMD Millipore screening panel (now Eurofins)
Put plainly: EMD Millipore (Eurofins) CDK panel. In kind it is biochemical. Here is the method: (§1) Therefore 4,6-pyrimidine 3 was submitted to a EMD Millipore CDK panel to assess potency across the selected CDK family members (Table 3). Modest activity was observed against several CDKs; […]. […]. page 4: […]
(§2) mM Mg Acetate and […] (specific activity approx. 500 cpm/pmol, concentration as required). The reaction is initiated by the addition of the MgATP mix. After incubation for 40 minutes at room temperature, the reaction is stopped by the addition of 3% phosphoric acid solution. 10 μL of the reaction is then spotted onto a P30 filtermat and washed three times for 5 minutes in 75 mM phosphoric acid and once in methanol prior to drying and scintillation counting. […]
CDK9/cyclinT1 (h) is incubated with 8 mM MOPS pH 7.0, 0.2 mM EDTA, 100 μM […]
(§3) , 10 mM MgAcetate and […]
(§4) (specific activity approx. 500 cpm/pmol, concentration as required). The reaction is initiated by the addition of the MgATP mix. After incubation for 40 minutes at room temperature, the reaction is stopped by the addition of 3% phosphoric acid solution. 10 μL of the reaction is then spotted onto a P30 filtermat and washed three times for 5 minutes in 75 mM phosphoric acid and once in methanol prior to drying and scintillation counting. […]

Experiment [1] has as its target T2, CDK2/cyclinE (Homo sapiens, UniProt P24941). In words: EMD Millipore (Eurofins) CDK panel. As to conditions: read-out: CDK2/cyclin E IC50; EMD Millipore screening panel, N = 1.
Description: Eurofins CDK panel assay conditions
(§5) CDK1/cyclinB (h) is incubated with 8 mM MOPS pH 7.0, 0.2 mM EDTA, 0.1 mg/mL histone H1, 10 mM MgAcetate and [9-33P]-ATP (specific activity approx. 500 cpm/pmol, concentration as required). The reaction is initiated by the addition of the MgATP mix. After incubation for 40 minutes at room temperature, the reaction is stopped by the addition of 3% phosphoric acid solution. 10 μL of the reaction is then spotted onto a P30 filtermat and washed three times for 5 minutes in 75 mM phosphoric acid and once in methanol prior to drying and scintillation counting.
(§6) CDK2/cyclinE (h) is incubated with 8 mM MOPS pH 7.0, 0.2 mM EDTA, 0.1 mg/mL histone H1, 10
(§7) CDK3/cyclinE (h) is incubated with 8 mM MOPS pH 7.0, 0.2 mM EDTA, 0.1 mg/mL histone H1, 10 mM Mg Acetate and [9-33P]-ATP (specific activity approx. 500 cpm/pmol, concentration as
Experiment [2] concerns the target T2, CDK2/cyclinE. Put plainly: CDK2 enzyme assay: off-chip mobility shift assay. In kind it is biochemical. More on the design: purchased Upstate/Millipore. Here is the method:
CDK2 enzyme assay: Off-chip Mobility SHIFT Assay
All reagents were purchased from Sigma-Aldrich unless otherwise specified. Inhibition of CDK2/cyclinE activity was quantified using an off-chip incubation, mobility shift assay, which uses a microfluidic chip (Caliper Life Sciences) to measure the conversion of a fluorescent peptide substrate to phosphorylated product. An Off-chip Mobility Shift Chip with 12 sippers (Caliper Life Sciences) was prepared for use according to the manufacturer’s instructions using Coating Reagent #3 (Caliper Life Sciences). The off-chip incubation was carried out in white, 384-well, flat bottom, low volume assay plates (Greiner). 5 µL peptide mix (1.5 µM substrate peptide (fluorescein-QSPKKG-CONH2, Bachem) and 90 µM ATP in kinase base buffer (50 mM HEPES, pH7.5 (Calbiochem), 0.06% CHAPSO)) were added to each well of the prepared compound plates which contained 120 nL compound stock solution per well. The reaction was then initiated by the addition of 6 µL enzyme mix (1.0 nM CDK2/cyclin E (Upstate/Millipore), 1.0 mM DTT and 5.0 mM MgCl2 in kinase base buffer). After incubation for 60 min at room temperature, each reaction was terminated by the addition of 10µL of stop solution containing 100 mM HEPES pH 7.5 (Calbiochem), 0.033% Brij-35, 0.22% Coating Reagent #3 (Caliper Life Sciences), 44 mM EDTA and 5 % DMSO. Reaction products were analysed using a Caliper LabChip LC3000 instrument and peak height was used to calculate percentage conversion of substrate to product.
For compound response testing, a 12 point compound concentration range was used. Compounds were acoustically dosed (Echo 555; Labcyte) into assay-ready plates using 11 half log intervals from 100 μM to […] plus a 12th point at 0.01 μM. Each well was backfilled with the required volume up to 120 nL of 100% DMSO to ensure a final 1% v/v DMSO concentration in the assay. In addition to the compound test wells, each plate carried maximum and minimum controls. Staurosporine at 10 μM was used to inhibit CDK2 activity for the minimum control. As a maximum control, 120 nL pure DMSO was added to the wells. Each plate contained at least 11 randomly distributed maximum and minimum controls. After the addition of compounds to the assay plates, the assay was performed as detailed above. Percentage conversion of substrate to product was used to calculate the effect of each compound on the kinase activity of CDK2/cyclinE. Enzyme inhibition model 3, non-linear curve fit analysis within OriginLab™ software was used to fit dose response curves and estimate the […]
concentration of compound required to reduce the enzyme activity to 50% of the conversion calculated from an average of the maximum controls.
Cell-based ELISA (Cellisa) for HSP72 expression
To follow HSP72 protein expression, a product of HSF1 transcriptional activity, Cellisa was developed. Cells (5-8x10^4cells/ml) were seeded into 96-well plates and incubated at 37 °C for 48 h.
Compounds were then added at a range of concentrations and incubated for 1 h before addition of 17-AAG (250 nM). Cells were then incubated for 18 h. The medium was removed and cells were fixed with fixing solution (4% paraformaldehyde, 0.3% TritonX-100 in PBS) for 30 min at 4 °C. The plates were then washed with 0.1% Tween-20/deionised water before blocking with 5% milk for 30 min at 37 °C. After washing the plates, HSP72 antibody (SPA-810, Enzo Life) was added for 1.5 h at 37 °C.
Following 4 x washes, the plates were incubated with europium-labelled anti-mouse antibody (0.6ug/ml) in Delfia assay buffer (Perkin Elmer) for 1 h at 37 °C. After washing the plates, Delfia enhancement solution was added, shaken for 10 min before reading in the Envision plate reader (Perkin-Elmer) with excitation at 340 nm and emission at 615 nm. The plates were washed again before protein determination using the BCA assay. The europium counts were normalised for the amount of protein in each well. The 50% inhibitory concentration value of the compound was then calculated and presented. […]

The next experiment addresses CDK1/cyclin B (Homo sapiens, UniProt P06493). In words: EMD Millipore (Eurofins) CDK panel. As to conditions: read-out: CDK1/cyclin B IC50; EMD Millipore screening panel, N = 1.
The next experiment addresses CDK3/cyclin E (Homo sapiens, UniProt Q00526). Put plainly: EMD Millipore (Eurofins) CDK panel. As to conditions: read-out: CDK3/cyclin E IC50; EMD Millipore screening panel, N = 1.
The target in another experiment is T3, CDK6/cyclin D3 (Homo sapiens, UniProt Q00534).
T3 construct: purchased EMD Millipore screening panel (now Eurofins)
In words: EMD Millipore (Eurofins) CDK panel. In kind it is biochemical. As to conditions: EMD Millipore screening panel, N = 1. Here is the method:
as §1, §2, §3, §4

The target of another experiment is T4, CDK7/cyclin H/MAT1 (Homo sapiens, UniProt P50613).
T4 construct: purchased EMD Millipore screening panel (now Eurofins)
In words: EMD Millipore (Eurofins) CDK panel. In kind it is biochemical. As to conditions: EMD Millipore screening panel, N = 1. The protocol:
as §1, §2, §3, §4

Another experiment deals with T5, CDK5/p35 (Homo sapiens, UniProt Q00535).
T5 construct: purchased EMD Millipore screening panel (now Eurofins)
Put plainly: EMD Millipore (Eurofins) CDK panel. In kind it is biochemical. As to conditions: EMD Millipore screening panel, N = 1. The protocol: Therefore 4,6-pyrimidine 3 was submitted to a EMD Millipore CDK panel to assess potency across the selected CDK family members (Table 3). Modest activity was observed against several CDKs; […]. […]. page 4:
CDK5/p35 (h) is incubated with 8 mM MOPS pH 7.0, 0.2 mM EDTA, 0.1 mg/mL histone H1, 10 mM Mg Acetate and […] (specific activity approx. 500 cpm/pmol, concentration as required). The reaction is initiated by the addition of the MgATP mix. After incubation for 40 minutes at room temperature, the reaction is stopped by the addition of 3% phosphoric acid solution. 10 μL of the reaction is then spotted onto a P30 filtermat and washed three times for 5 minutes in 75 mM phosphoric acid and once in methanol prior to drying and scintillation counting. […]
as §3, §4

T1 sequence (P50750 whole entry): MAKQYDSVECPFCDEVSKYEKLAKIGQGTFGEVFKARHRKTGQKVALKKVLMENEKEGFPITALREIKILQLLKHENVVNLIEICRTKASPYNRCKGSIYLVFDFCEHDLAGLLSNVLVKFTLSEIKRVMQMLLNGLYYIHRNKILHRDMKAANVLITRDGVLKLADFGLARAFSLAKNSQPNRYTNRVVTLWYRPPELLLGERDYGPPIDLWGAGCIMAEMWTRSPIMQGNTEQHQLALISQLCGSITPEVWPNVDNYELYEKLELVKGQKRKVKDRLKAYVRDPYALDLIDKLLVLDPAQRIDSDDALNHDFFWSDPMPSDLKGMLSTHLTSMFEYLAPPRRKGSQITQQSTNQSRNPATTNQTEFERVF
T1 sequence (O60563 whole entry partner): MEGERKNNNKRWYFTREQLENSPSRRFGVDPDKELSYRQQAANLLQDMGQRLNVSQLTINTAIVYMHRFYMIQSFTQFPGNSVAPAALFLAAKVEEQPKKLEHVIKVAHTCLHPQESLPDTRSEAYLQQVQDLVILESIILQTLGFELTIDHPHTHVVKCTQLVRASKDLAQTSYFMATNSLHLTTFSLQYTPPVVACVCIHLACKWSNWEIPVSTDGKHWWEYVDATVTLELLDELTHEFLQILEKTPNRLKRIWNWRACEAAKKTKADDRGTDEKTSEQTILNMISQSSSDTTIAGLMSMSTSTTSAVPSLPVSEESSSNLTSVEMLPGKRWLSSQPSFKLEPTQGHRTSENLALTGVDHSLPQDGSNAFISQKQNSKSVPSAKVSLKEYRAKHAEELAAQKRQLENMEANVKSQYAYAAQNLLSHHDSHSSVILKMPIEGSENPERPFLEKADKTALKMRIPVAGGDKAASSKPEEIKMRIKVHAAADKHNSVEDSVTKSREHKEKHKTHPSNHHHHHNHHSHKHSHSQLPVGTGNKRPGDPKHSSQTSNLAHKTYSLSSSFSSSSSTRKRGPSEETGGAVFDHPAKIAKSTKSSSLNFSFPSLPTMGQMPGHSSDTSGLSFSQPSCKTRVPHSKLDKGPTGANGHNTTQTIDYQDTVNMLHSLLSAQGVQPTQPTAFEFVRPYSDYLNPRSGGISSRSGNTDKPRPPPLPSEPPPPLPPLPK
T3 sequence (Q00534 whole entry): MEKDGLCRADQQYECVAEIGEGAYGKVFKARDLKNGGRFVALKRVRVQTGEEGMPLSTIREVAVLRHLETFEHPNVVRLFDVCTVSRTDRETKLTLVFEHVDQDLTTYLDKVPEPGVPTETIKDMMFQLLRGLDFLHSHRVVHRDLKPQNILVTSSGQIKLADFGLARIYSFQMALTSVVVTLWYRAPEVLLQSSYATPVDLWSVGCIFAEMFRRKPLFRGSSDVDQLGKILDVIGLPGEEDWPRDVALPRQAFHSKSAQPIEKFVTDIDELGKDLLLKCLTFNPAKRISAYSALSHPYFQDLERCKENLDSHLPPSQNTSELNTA
T3 sequence (P30281 whole entry partner): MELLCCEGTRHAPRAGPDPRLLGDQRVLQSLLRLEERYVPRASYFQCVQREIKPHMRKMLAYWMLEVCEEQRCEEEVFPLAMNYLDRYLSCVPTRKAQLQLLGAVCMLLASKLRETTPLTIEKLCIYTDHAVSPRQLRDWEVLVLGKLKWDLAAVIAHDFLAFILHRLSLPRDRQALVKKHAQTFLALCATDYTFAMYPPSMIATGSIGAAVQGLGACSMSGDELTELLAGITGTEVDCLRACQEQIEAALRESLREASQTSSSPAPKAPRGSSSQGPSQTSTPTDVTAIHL
T5 sequence (Q00535 whole entry): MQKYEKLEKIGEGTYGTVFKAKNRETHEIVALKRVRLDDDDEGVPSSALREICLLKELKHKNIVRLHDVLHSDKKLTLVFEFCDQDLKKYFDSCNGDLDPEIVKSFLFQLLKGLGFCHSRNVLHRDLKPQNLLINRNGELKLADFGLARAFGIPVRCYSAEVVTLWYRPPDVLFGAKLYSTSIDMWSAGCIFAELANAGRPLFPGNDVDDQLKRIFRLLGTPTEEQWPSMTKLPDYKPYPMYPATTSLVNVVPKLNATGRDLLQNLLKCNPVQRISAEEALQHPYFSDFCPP
T5 sequence (Q15078 whole entry partner): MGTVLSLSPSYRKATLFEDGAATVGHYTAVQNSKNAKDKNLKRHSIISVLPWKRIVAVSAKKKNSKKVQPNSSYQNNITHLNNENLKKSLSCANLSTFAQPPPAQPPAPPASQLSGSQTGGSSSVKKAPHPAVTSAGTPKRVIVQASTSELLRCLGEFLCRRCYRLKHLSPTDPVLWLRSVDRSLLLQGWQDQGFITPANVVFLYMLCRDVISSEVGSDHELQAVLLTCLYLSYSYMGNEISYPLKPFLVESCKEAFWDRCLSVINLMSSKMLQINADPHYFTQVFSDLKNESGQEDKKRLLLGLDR
CDK1/cyclin B, sequence (P06493 whole entry): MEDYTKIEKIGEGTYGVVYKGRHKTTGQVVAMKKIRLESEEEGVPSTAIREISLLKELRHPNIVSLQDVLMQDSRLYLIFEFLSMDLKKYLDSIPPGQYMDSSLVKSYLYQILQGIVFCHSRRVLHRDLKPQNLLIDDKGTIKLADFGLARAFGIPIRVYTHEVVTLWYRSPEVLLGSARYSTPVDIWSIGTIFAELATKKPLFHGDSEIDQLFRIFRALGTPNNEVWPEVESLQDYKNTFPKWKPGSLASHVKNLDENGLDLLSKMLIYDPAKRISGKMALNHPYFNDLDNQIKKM
CDK1/cyclin B, sequence (P14635 whole entry partner): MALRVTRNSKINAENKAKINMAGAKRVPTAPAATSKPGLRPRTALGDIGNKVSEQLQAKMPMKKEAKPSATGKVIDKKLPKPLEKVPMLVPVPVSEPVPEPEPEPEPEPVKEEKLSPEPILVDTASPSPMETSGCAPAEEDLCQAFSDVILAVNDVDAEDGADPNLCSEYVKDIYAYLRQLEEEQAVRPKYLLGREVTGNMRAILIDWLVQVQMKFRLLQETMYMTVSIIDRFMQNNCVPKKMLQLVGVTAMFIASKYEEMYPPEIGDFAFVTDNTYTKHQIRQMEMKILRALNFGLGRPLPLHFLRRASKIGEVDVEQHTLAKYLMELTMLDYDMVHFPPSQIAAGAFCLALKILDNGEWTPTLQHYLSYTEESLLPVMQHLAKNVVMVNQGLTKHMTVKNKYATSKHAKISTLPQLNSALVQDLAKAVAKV
T4 sequence (P50613 whole entry): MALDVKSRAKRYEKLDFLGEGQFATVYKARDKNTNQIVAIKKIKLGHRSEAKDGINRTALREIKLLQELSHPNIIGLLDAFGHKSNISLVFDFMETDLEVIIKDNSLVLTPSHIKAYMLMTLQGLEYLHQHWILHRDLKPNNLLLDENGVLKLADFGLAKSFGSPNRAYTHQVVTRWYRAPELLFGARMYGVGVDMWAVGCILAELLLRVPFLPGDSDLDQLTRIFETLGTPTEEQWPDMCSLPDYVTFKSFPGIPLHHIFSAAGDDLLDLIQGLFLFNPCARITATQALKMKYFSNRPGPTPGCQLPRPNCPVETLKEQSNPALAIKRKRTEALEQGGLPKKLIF
T4 sequence (P51946 whole entry partner): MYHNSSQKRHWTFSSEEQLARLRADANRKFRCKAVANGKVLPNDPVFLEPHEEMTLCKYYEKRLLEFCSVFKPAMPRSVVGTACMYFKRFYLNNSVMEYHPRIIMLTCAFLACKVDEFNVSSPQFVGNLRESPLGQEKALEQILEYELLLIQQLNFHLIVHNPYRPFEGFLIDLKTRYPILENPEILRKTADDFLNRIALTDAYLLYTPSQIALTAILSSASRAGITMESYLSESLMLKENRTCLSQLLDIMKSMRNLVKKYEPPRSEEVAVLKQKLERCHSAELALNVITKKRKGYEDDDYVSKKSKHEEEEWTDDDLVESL
T4 sequence (P51948 whole entry partner): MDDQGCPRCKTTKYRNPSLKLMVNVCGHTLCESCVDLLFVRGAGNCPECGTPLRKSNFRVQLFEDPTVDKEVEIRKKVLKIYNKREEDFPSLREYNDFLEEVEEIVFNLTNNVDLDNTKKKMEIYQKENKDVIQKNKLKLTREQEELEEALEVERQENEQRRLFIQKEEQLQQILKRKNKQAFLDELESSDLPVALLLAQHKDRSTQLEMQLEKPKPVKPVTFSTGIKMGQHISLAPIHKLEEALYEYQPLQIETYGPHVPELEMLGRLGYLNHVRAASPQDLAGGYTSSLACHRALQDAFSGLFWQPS
Description for CDK1/cyclin B: Eurofins CDK panel assay conditions
as §5, §6, §7
Description for CDK3/cyclin E: Eurofins CDK panel assay conditions
as §5, §6, §7
Description for HSF1-stress pathway: To discover inhibitors of the HSF1-stress pathway, we employed an automated cellular imaging and analysis method (ArrayScan™) that quantifies the ability of a compound to suppress the expression of the HSF1-mediated inducible HSP70 isoform, HSP72.
U2OS cells (1500 per well) were plated in 40 μL of DMEM media (containing 10% fetal calf serum and 2 mM Glutamax T-1) in costar 384-well plates and left overnight at 37 °C and 5% CO2 to adhere.
treatment with compound, all wells except min wells were dosed with 17AAG diluted in DMSO (10
°C and 5% CO2. The following day the cells were fixed by addition of 20 μL/well of 12% formaldehyde with 1:1700 Hoechst in PBS for 10 min at room temperature. The fixative was decanted and the wells washed once with 50 μL of phosphate buffer saline (PBS).The PBS was subsequently aspirated, and the cells were permeabilized by addition of 20 μL/well of PBS 0.3% Triton X-100 for 20 min at room temperature. The wells were then washed with 80 μL of PBS prior to the addition of 20 μL of combined primary and secondary antibodies diluted in PBS (1:10 000 mouse anti-Hsp72
11001 molecular probes), for 2 h at room temperature. The wells were then washed with 50 μL of PBS. Finally, 50 μL of PBS was added to each well, and the plates were sealed ready to analyze.
Analysis was carried out using a Cellomics Arrayscan VTI instrument and the Cellomics Arrayscan Compartmental Analysis algorithm to measure cellular levels of HSP72.
100 μM to 0.1 μM plus a 12th point at 0.01 μM. Each well was backfilled with the required volume up to 120 nL of 100% DMSO to ensure a final 1% v/v DMSO concentration in the assay. In addition to the compound test wells, each plate carried maximum and minimum controls. Staurosporine at 10 μM was used to inhibit CDK2 activity for the minimum control. As a maximum control, 120 nL pure DMSO was added to the wells. Each plate contained at least 11 randomly distributed maximum and minimum controls. After the addition of compounds to the assay plates, the assay was performed as detailed above. Percentage conversion of substrate to product was used to calculate the effect of each compound on the kinase activity of CDK2/cyclinE. Enzyme inhibition model 3, non-linear curve fit analysis within OriginLab™ software was used to fit dose response curves and estimate the

For `CN(C)CCOc1ccc(Nc2cc(-n3cnc4ccccc43)ncn2)nc1` [Compound 3], the IC50 in the experiment with HSF1-stress pathway (Homo sapiens, U2OS, read-out: HSF1 IC50) worked out at 80 nM; against CDK9/cyclin T1 (EMD Millipore screening panel, N = 1), 14 nM; on CDK2/cyclinE [1] it was 2800 nM; on CDK2/cyclinE [2] (biochemical, CDK2/cyclinE, average of two determinations), 580 nM; at CDK1/cyclin B, 1800 nM; on CDK3/cyclin E it was 3500 nM. In addition, the figures for the IC50 on CDK6/cyclin D3, at CDK7/cyclin H/MAT1 and on CDK5/p35 were 1300 nM, 1100 nM and 610 nM, respectively. Moreover, the “fold more potent in the HSF1-stress pathway assay compared with phenyl compound 2” value with HSF1-stress pathway (relative to compound 2) was “approximately 15 fold”. For the same molecule, at CDK9/cyclin T1 (ratio between CDK2/7/9, CDK9 = 1, EMD Millipore Screening Panel), the “ratio of activity CDK9/CyclinT1” value worked out at 1. Besides, the “fold more active against CDK2 compared with phenyl compound 2” value at CDK2/cyclinE [2] (relative to compound 2) was determined as 35 fold.

Source of the values: article PMC5048338, “Discovery of 4,6-disubstituted pyrimidines as potent inhibitors of the heat shock factor 1 (HSF1) stress pathway and CDK9” (Medchemcomm, 2016).
